Results reported in US20050228046A1, “Alkylamine as an antimicrobial agent in ophthalmic compositions” (ADVANCED MEDICAL OPTICS, INC., priority 2004, published 2005).

What was measured:
[1] = tested on: five FDA/ISO specified test organisms; experiment: Antimicrobial activity against the five-microbial panel, FDA/ISO disinfection criteria; format: cell-based; settings: for stand-alone criteria: 10 ppm MA
Method: The following is the procedure by which various antimicrobial agents and solutions are tested for their ability to reduce microbial loads over short periods of time, typically 24 hours and less. The procedure is a basic microbiology challenge test, which involves the inoculation of test product aliquots with a known number of viable cells of several test organisms, and assay for the survivors at various time intervals. The results are used to calculate log drops at soak times and construct kill-curves (graphs of survivors versus time) if desired. Candida albicans, ATCC 10231, is one of five organisms specified per FDA and ISO/CLI tests for the testing of contact lens disinfectants (FDA Premarket Notification (510k) Guidance Document for Contact Lens Care Products, Appendix B, Apr. 1, 1997 and ISO/FDIS 14729: Ophthalmic optics-Contact lens care products-Microbiological requirements and test methods for products and regimens for hygienic management of contact lenses, January 2001). Contact lens disinfectants are also known as contact lens multi-purpose solutions when they are used for rinsing, cleaning, disinfection, storage and rewetting contact lenses. The five FDA/ISO specified test organisms are listed below: • Serratia marcescens, ATCC 13880 • Staphylococcus aureus, ATCC 6538 • Pseudomonas aeruginosa, ATCC 9027 • Candida albicans, ATCC 10231 • Fusarium solani, ATCC 36031 Candida albicans is often the most resistant of the five organisms to commonly used cationic antimicrobial agents in contact lens multi-purpose solutions. Thus, achievement of adequate antimicrobial activity against Candida is often the most difficult task to pass a particular disinfection efficacy standard. FDA and ISO guidelines specify two disinfection efficacy standards, indicated in the table below: Stand Alone Disinfectant (Primary) Criteria: [table] The specific test procedure for testing antimicrobial activity against the five FDA/ISO specified test organisms is as follows (C. albicans is provided as a specific example): Test samples are sterile-filtered through a 0.22 micron sterile filter into sterile plastic high density polyethylene bottles or plastic flasks. A 10-mL aliquot of test sample is aseptically transferred into a sterile polystyrene plastic test tube. Sterile saline (0.90 w/v % NaCl) with 0.05 w/v % Polysorbate 80 (SS+TWEEN) is transferred into a separate control tube. All samples and control are stored at 20-25° C. throughout the duration of the test.

[2] = Solubility in aqueous media; format: physicochemical

Question: Which results are given for `CCCCCCCCCCCCCCN` [Myristylamine]?
Answer: stand-alone criteria ([1]; Tween 80:MA ratio 7.4): fail to meet the stand-alone criteria; stand-alone criteria ([1]; Tween 80:MA ratio 7.4, with addition of Polyquaternium-1): can still be a stand-alone disinfectant product; anti-bacteria activity ([1]; TPGS:MA ratio of 40): lost considerably; anti-fungal activity (Ca and Fs) ([1]; TPGS:MA ratio of up to 60): still seen; solubility in aqueous solution with acid and surfactant ([2]; acid and surfactant containing an alkyl chain coexist, solution pH below 6): may be dissolved in an aqueous solution; solubility in acid ([2]; ambient temperature, solution pH below 2): insoluble in acid at ambient temperature; solubility in water ([2]; water or basic solution): does not dissolve in water or in a basic solution
